Results from patent US20110294901A1, “FINELY PULVERIZED PHARMACEUTICAL COMPOSITION” (priority 2009, published 2011).

Columns and labels:
[1] = Particle size measurement with a particle size distribution measuring device (Microtruck X100); format: physicochemical
Description: Preferably, the particles of the drug contained in the composition according to the present invention have a cumulative 50% particle diameter of not more than 1.5 μm and a cumulative 90% particle diameter of not more than 3.0 μm. More preferably, the cumulative 50% particle diameter and the cumulative 90% particle diameter are not more than 1.0 μm and not more than 2.0 μm, respectively. In the present invention, when a cumulative curve is determined by presuming the total volume of a powder population, of which the particle size distribution is analyzed, to be 100%, the particle diameter of a point at which the cumulative curve is 50% and the particle diameter of a point at which the cumulative curve is 90% are “cumulative 50% particle diameter” and “cumulative 90% particle diameter” (μm), respectively.
The diameters of drug particles obtained by the grinding can be measured by a laser diffraction/scattering-type particle size distribution measuring machine. Specifically, for example, Microtruck (tradename) sold by NIKKISO Co., Ltd. is preferred. […]
The cumulative 50% particle diameter of bulk drug particles in the fine granules in Examples 4 and 5 and Comparative Examples 3 to 5 was measured with a particle size distribution measuring device (manufacturer: NIKKISO Co., Ltd., model: Mircotruck X100).

[2] = Dissolution test (1), paddle method, 1% aqueous polysorbate 80; format: physicochemical; conditions: three hr after the start of the dissolution; 50 mg drug, 100 rpm, 900 mL 1% aqueous polysorbate 80
Description: A dissolution test was carried out for the suspension produced in Example 1 (grinding conditions 3) and a liquid obtained by suspending the ground bulk drug obtained in Comparative Example 1 in water.
Each of the suspensions in an amount corresponding to 50 mg of the 22β-methoxyolean-12-ene-3β,24(4β)-diol bulk drug was accurately weighed, and a test was carried out by a dissolution test method, second method (paddle method), specified in Japanese Pharmacopoeia, at a rotation speed of 100 rpm (rotation speed of paddle) using 900 mL of a 1% aqueous polysorbate 80 solution as a test solution. After 15 min, 30 min, 60 min, and 180 min from the start of dissolution, 5 mL of the test solution was collected and was filtered by a membrane filter having a pore diameter of 0.2 μm to give measurement samples. The samples were analyzed by high-performance liquid chromatography (manufacturer: Shimadzu Seisakusho Ltd., model:LC-10ATvp) to determine dissolution rate for each sample.

cumulative 50% particle diameter ([1]; bulk drug before grinding)	dissolution rate [2] [%]	cumulative 50% particle diameter of the ground bulk drug ([1]; ground with jet mill at 0.54 MPa, dispersed in 0.01% aqueous sodium laurylsulfate solution) [μm]	SMILES
about 50 μm			CO[C@@H]1CC(C)(C)C[C@H]2C3=CC[C@@H]4[C@@]5(C)CC[C@H](O)[C@](C)(CO)[C@@H]5CC[C@@]4(C)[C@]3(C)CC[C@@]12C [22β-methoxyolean-12-ene-3β,24(4β)-diol]
	10	2.5	CO[C@@H]1CC(C)(C)C[C@H]2C3=CC[C@@H]4[C@@]5(C)CC[C@H](O)[C@](C)(CO)[C@@H]5CC[C@@]4(C)[C@]3(C)CC[C@@]12C [Comparative Example 1, 22β-Methoxyolean-12-ene-3β, 24(4β)-diol]
